The assay deals with T1, TrkA (Homo sapiens, UniProt P04629).
T1 construct: aa 441-796; His; purchased Invitrogen PV3144
Briefly: Isolated TRK enzyme assay (HTRF KinEASE-TK kit), PV3144 TrkA enzyme assay. The class given is biochemical. The following applies: PV3144 TrkA enzyme assay, recombinant His-tagged cytoplasmic domain aa 441-796, 4 nM enzyme, 40 uM ATP; arithmetic mean where more than one reading; read-out: Trka enzyme (IC50). Put shortly:
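Recombinant His-tagged cytoplasmic domain of human TrkA, preactivated with ATP for 20 min, then 20 min with compound before biotinylated TK substrate (1 uM final) at room temperature. HTRF read at 665/620 nm; % inhibition normalised to reference-compound and DMSO controls, IC50 from sigmoid fit, mean of replicates.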

T1 sequence (P04629 441-796): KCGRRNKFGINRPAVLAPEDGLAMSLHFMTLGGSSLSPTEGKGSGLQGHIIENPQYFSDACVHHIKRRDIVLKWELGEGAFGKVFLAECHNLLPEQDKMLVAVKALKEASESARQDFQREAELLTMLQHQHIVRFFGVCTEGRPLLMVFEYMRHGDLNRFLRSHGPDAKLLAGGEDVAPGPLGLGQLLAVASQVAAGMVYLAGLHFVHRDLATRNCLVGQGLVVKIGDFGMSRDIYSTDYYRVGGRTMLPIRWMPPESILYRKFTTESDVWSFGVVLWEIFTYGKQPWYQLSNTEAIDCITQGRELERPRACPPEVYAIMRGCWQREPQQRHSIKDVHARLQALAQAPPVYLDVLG

`C[C@@H](CO)n1cc(C(=O)c2cc(NC(=O)Cc3ccc(C(F)(F)F)cc3)ccn2)c2cncnc21` [Example 17, N-[2-({7-[(2S)-1-hydroxypropan-2-yl]-7H-pyrrolo[2,3-d]pyrimidin-5-yl}carbonyl)pyridin-4-yl]-2-[4-(trifluoromethyl)phenyl]acetamide]: the IC50 – broadly, the concentration at which inhibition is half-maximal – stood at 72.2 nM. In the case of `CC(C)c1cn(CC(=O)Nc2ccnc(C(=O)c3cn([C@@H](C)CO)c4ncncc34)c2)nn1` [Example 29, N-[2-({7-[(2S)-1-hydroxypropan-2-yl]-7H-pyrrolo[2,3-d]pyrimidin-5-yl}carbonyl)pyridin-4-yl]-2-[4-(propan-2-yl)-1H-1,2,3-triazol-1-yl]acetamide], the IC50 came to 74.2 nM. In the case of `CC(CO)(CO)n1cc(C(=O)c2cc(NC(=O)Cn3ccc(C(F)(F)F)n3)ccn2)c2cncnc21` [Example 105, N-(2-{[7-(1,3-dihydroxy-2-methylpropan-2-yl)-7H-pyrrolo[2,3-d]pyrimidin-5-yl]carbonyl}pyridin-4-yl)-2-[3-(trifluoromethyl)-1H-pyrazol-1-yl]acetamide], the IC50 worked out at 72.7 nM. For `Cc1cc(C)n(CC(=O)Nc2cc(C(=O)c3cn(C(C)C)c4ncncc34)ccn2)n1` [Example 152, 2-(3,5-dimethyl-1H-pyrazol-1-yl)-N-(4-{[7-(propan-2-yl)-7H-pyrrolo[2,3-d]pyrimidin-5-yl]carbonyl}pyridin-2-yl)acetamide] the value was 71.2 nM; for `CC(C)(C)n1cc(C(=O)c2cc(NC(=O)Cc3ccc(Cl)cn3)ccn2)c2cncnc21` [Example 39, N-{2-[(7-tert-butyl-7H-pyrrolo[2,3-d]pyrimidin-5-yl)carbonyl]pyridin-4-yl}-2-(5-chloropyridin-2-yl)acetamide], 5.27 nM; for `CC(CO)(CO)n1cc(C(=O)c2cc(NC(=O)Cc3ccc(Cl)cc3)ccn2)c2cncnc21` [Example 102, 2-(4-chlorophenyl)-N-(2-{[7-(1,3-dihydroxy-2-methylpropan-2-yl)-7H-pyrrolo[2,3-d]pyrimidin-5-yl]carbonyl}pyridin-4-yl)acetamide], 96.6 nM. In the case of `CC(C)n1cc(C(=O)c2ccnc(NC(=O)Cc3ccc(F)cc3F)c2)c2cncnc21` [Example 118, 2-(2,4-difluorophenyl)-N-(4-{[7-(propan-2-yl)-7H-pyrrolo[2,3-d]pyrimidin-5-yl]carbonyl}pyridin-2-yl)acetamide], the IC50 was determined as 8.82 nM.

Take `CC(C)n1cc(C(=O)c2ccnc(NC(=O)Cc3ccccn3)c2)c2cncnc21` [Example 163, N-(4-{[7-(propan-2-yl)-7H-pyrrolo[2,3-d]pyrimidin-5-yl]carbonyl}pyridin-2-yl)-2-(pyridin-2-yl)acetamide]: the IC50 amounted to 3620 nM. As for `CC(CO)n1cc(C(=O)c2ccnc(NC(=O)Cc3ccc(C#N)cc3)c2)c2cncnc21` (single isomer, unassigned) [Example 34, 2-(4-cyanophenyl)-N-(4-{[7-(1-hydroxypropan-2-yl)-7H-pyrrolo[2,3-d]pyrimidin-5-yl]carbonyl}pyridin-2-yl)acetamide], the IC50 was found to be 332 nM. In the case of `CC(C)(CO)n1cc(C(=O)c2cc(NC(=O)Cc3ccc(Cl)cc3)ccn2)c2cnc(N)nc21` [Example 48, N-{2-[2-Amino-7-(2-hydroxy-1,1-dimethyl-ethyl)-7H-pyrrolo[2,3-d]pyrimidine-5-carbonyl}-pyridin-4-yl]-2-(4-chloro-phenyl)-acetamide], the IC50 was 7.29 nM. For `Cc1cc(C(=O)c2cn(C(C)C)c3ncncc23)cc(NC(=O)Cc2ccc(C#N)cc2)n1` [Example 76, 2-(4-cyanophenyl)-N-(6-methyl-4-{[7-(propan-2-yl)-7H-pyrrolo[2,3-d]pyrimidin-5-yl]carbonyl}pyridin-2-yl)acetamide], the concentration for half-maximal inhibition (IC50) was 315 nM.

Take `CC1(n2cc(C(=O)c3cc(NC(=O)Cc4ccc(Cl)cn4)ccn3)c3cncnc32)COC1` [Example 168, 2-(5-chloropyridin-2-yl)-N-(2-{[7-(3-methyloxetan-3-yl)-7H-pyrrolo[2,3-d]pyrimidin-5-yl]carbonyl}pyridin-4-yl)acetamide]: the IC50 is 155 nM. The value for `CC(C)(CO)n1cc(C(=O)c2ccc(C#N)c(NC(=O)Cn3ccc(C(F)(F)F)n3)c2)c2cnc(N)nc21` [Example 11, N-(5-{[2-amino-7-(1-hydroxy-2-methylpropan-2-yl)-7H-pyrrolo[2,3-d]pyrimidin-5-yl]carbonyl}-2-cyanophenyl)-2-[3-(trifluoromethyl)-1H-pyrazol-1-yl]acetamide] was 11.5 nM. In the case of `O=C(Cc1ccc(Cl)cc1)Nc1ccnc(C(=O)c2cn(C(CO)CO)c3ncncc23)c1` [Example 92, 2-(4-chlorophenyl)-N-(2-{[7-(1,3-dihydroxypropan-2-yl)-7H-pyrrolo[2,3-d]pyrimidin-5-yl]carbonyl}pyridin-4-yl)acetamide], the IC50 was 747 nM. Consider `Cc1cc(C(F)(F)F)nn1CC(=O)Nc1ccnc(C(=O)c2cn(C(C)C)c3ncncc23)c1` [Example 69, 2-[5-methyl-3-(trifluoromethyl)-1H-pyrazol-1-yl]-N-(2-{[7-(propan-2-yl)-7H-pyrrolo[2,3-d]pyrimidin-5-yl]carbonyl}pyridin-4-yl)acetamide], for which the IC50 stood at 5.54 nM. Regarding `CC(C)(CO)n1cc(C(=O)c2cc(NC(=O)Cn3cc(C(F)(F)F)nn3)ccn2)c2cnc(N)nc21` [Example 53, N-(2-{[2-amino-7-(1-hydroxy-2-methylpropan-2-yl)-7H-pyrrolo[2,3-d]pyrimidin-5-yl]carbonyl}pyridin-4-yl)-2-[4-(trifluoromethyl)-1H-1,2,3-triazol-1-yl]acetamide], the IC50 is 216 nM. With `O=C(Cc1ccc(C(F)(F)F)c(F)c1)Nc1cc(C(=O)c2cn(CCO)c3ncncc23)ccn1` [Example 142, 2-[3-fluoro-4-(trifluoromethyl)phenyl]-N-(4-{[7-(2-hydroxyethyl)-7H-pyrrolo[2,3-d]pyrimidin-5-yl]carbonyl}pyridin-2-yl)acetamide], the IC50 came to 29.5 nM. Regarding `C[C@@H](CO)n1cc(C(=O)c2cc(NC(=O)Cn3ccc(C(F)(F)F)n3)ccn2)c2cncnc21` [Example 14, N-[2-({7-[(2S)-1-hydroxypropan-2-yl]-7H-pyrrolo[2,3-d]pyrimidin-5-yl}carbonyl)pyridin-4-yl]-2-[3-(trifluoromethyl)-1H-pyrazol-1-yl]acetamide], the IC50 worked out at 131 nM. The value for `N#Cc1ccc(CC(=O)Nc2cc(C(=O)c3cn(C4CC4)c4ncncc34)ccn2)cc1` [Example 175, 2-(4-cyanophenyl)-N-{4-[(7-cyclopropyl-7H-pyrrolo[2,3-d]pyrimidin-5-yl)carbonyl]pyridin-2-yl}acetamide] was 407 nM; that for `O=C(Cc1ccc(Cl)cc1)Nc1cc(C(=O)c2cn([C@H]3CC[C@@H](O)CC3)c3ncncc23)ccn1` [Example 6, 2-(4-chlorophenyl)-N-(4-{[7-(cis-4-hydroxycyclohexyl)-7H-pyrrolo[2,3-d]pyrimidin-5-yl]carbonyl}pyridin-2-yl)acetamide] was 21.3 nM.

Consider `CC(C)n1cc(C(=O)c2ccnc(NC(=O)Cc3ccccc3)c2)c2cncnc21` [Example 149, 2-phenyl-N-(4-{[7-(propan-2-yl)-7H-pyrrolo[2,3-d]pyrimidin-5-yl]carbonyl}pyridin-2-yl)acetamide], for which the IC50 stood at 171 nM. As for `CC(CO)n1cc(C(=O)c2ccnc(NC(=O)Cc3ccc(C#N)cc3)c2)c2cncnc21` (racemic) [Example 32, 2-(4-cyanophenyl)-N-(4-{[7-(1-hydroxypropan-2-yl)-7H-pyrrolo[2,3-d]pyrimidin-5-yl]carbonyl}pyridin-2-yl)acetamide], the half-maximal inhibitory concentration (IC50) amounted to 101 nM. Take `CC(C)n1cc(C(=O)c2cc(NC(=O)Cc3ccc(C#N)cn3)ccn2)c2cnc(N)nc21` [Example 63, N-(2-{[2-amino-7-(propan-2-yl)-7H-pyrrolo[2,3-d]pyrimidin-5-yl]carbonyl}pyridin-4-yl)-2-(5-cyanopyridin-2-yl)acetamide]: the IC50 came out at 136 nM. As to `O=C(Cc1ccc(Cl)cn1)Nc1ccnc(C(=O)c2cn(C(CO)CO)c3ncncc23)c1` [Example 100, 2-(5-chloropyridin-2-yl)-N-(2-{[7-(1,3-dihydroxypropan-2-yl)-7H-pyrrolo[2,3-d]pyrimidin-5-yl]carbonyl}pyridin-4-yl)acetamide], the IC50 came to 2190 nM. `CC(C)n1cc(C(=O)c2ccnc(NC(=O)Cc3cccc(S(C)(=O)=O)c3)c2)c2cncnc21` [Example 123, 2-[3-(methylsulfonyl)phenyl]-N-(4-{[7-(propan-2-yl)-7H-pyrrolo[2,3-d]pyrimidin-5-yl]carbonyl}pyridin-2-yl)acetamide]: the IC50 was 42.1 nM.

For `CC(C)n1cc(C(=O)c2cc(NC(=O)Cc3ccc(Cl)cc3)ncn2)c2cncnc21` [Example 65, 2-(4-chlorophenyl)-N-(6-{[7-(propan-2-yl)-7H-pyrrolo[2,3-d]pyrimidin-5-yl]carbonyl}pyrimidin-4-yl)acetamide], the IC50 stood at 23.4 nM. For the compound `C[C@@H](CO)n1cc(C(=O)c2cc(NC(=O)Cc3cccc(C(F)(F)F)c3)ccn2)c2cncnc21` [Example 24, N-[2-({7-[(2S)-1-hydroxypropan-2-yl]-7H-pyrrolo[2,3-d]pyrimidin-5-yl}carbonyl)pyridin-4-yl]-2-[3-(trifluoromethyl)phenyl]acetamide], the IC50 worked out at 59.8 nM. Regarding `CC(C)n1cc(C(=O)c2ccnc(NC(=O)Cc3ccc(F)cn3)c2)c2cncnc21` [Example 73, 2-(5-fluoropyridin-2-yl)-N-(4-{[7-(propan-2-yl)-7H-pyrrolo[2,3-d]pyrimidin-5-yl]carbonyl}pyridin-2-yl)acetamide], the IC50 turned out to be 58.2 nM. As for `Cc1cc(C)n(CC(=O)Nc2cc(C(=O)c3cn([C@H]4CC[C@H](O)CC4)c4ncncc34)ccn2)n1` [Example 3, 2-(3,5-dimethyl-1H-pyrazol-1-yl)-N-(4-{[7-(trans-4-hydroxycyclohexyl)-7H-pyrrolo[2,3-d]pyrimidin-5-yl]carbonyl}pyridin-2-yl)acetamide], the IC50 amounted to 183 nM.
